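Abbreviation: GI50, concentration required for 50% inhibition of growth. TGI marks complete inhibition of growth.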
system: SN12C renal; assay: inhibition of tumour cell growth, NCI panel, 384-well format

Row | Compound | GI50 | TGI
1 | CN(C)C(=O)c1cc2cnc(Nc3ccc(N4CCNCC4)cn3)nc2n1C1CCCC1 | 20.3 µM | > 73.2 µM
2 | COc1cc2nccc(Oc3ccc(NC(=O)C4(C(=O)Nc5ccc(F)cc5)CC4)cc3)c2cc1OC | 0.372 µM | 4.71 µM
3 | O=C(Nc1cccc(C(F)(F)F)c1)Nc1cc(S(=O)(=O)NC2CC2)ccc1-c1ccsc1 | 4.71 µM | 17.6 µM

system: CCRF-CEM leukemia; assay: as above

Row | Compound | GI50 | TGI
4 | CN(C)C(=O)c1cc2cnc(Nc3ccc(N4CCNCC4)cn3)nc2n1C1CCCC1 | 2.39 µM | > 34.4 µM
5 | COc1cc2nccc(Oc3ccc(NC(=O)C4(C(=O)Nc5ccc(F)cc5)CC4)cc3)c2cc1OC | 1.96 µM | 3.52 µM
6 | O=C(Nc1cccc(C(F)(F)F)c1)Nc1cc(S(=O)(=O)NC2CC2)ccc1-c1ccsc1 | 2.4 µM | 5.85 µM

system: 786-0 renal; assay: as above

Row | Compound | GI50 | TGI
7 | CN(C)C(=O)c1cc2cnc(Nc3ccc(N4CCNCC4)cn3)nc2n1C1CCCC1 | 6.77 µM | 36 µM
8 | COc1cc2nccc(Oc3ccc(NC(=O)C4(C(=O)Nc5ccc(F)cc5)CC4)cc3)c2cc1OC | 4.47 µM | 19 µM
9 | O=C(Nc1cccc(C(F)(F)F)c1)Nc1cc(S(=O)(=O)NC2CC2)ccc1-c1ccsc1 | 4.09 µM | 14.3 µM

system: SNB-75 CNS; assay: as above

Row | Compound | GI50 | TGI
10 | CN(C)C(=O)c1cc2cnc(Nc3ccc(N4CCNCC4)cn3)nc2n1C1CCCC1 | 24.5 µM | 55 µM
11 | COc1cc2nccc(Oc3ccc(NC(=O)C4(C(=O)Nc5ccc(F)cc5)CC4)cc3)c2cc1OC | 1.29 µM | 4.35 µM
12 | O=C(Nc1cccc(C(F)(F)F)c1)Nc1cc(S(=O)(=O)NC2CC2)ccc1-c1ccsc1 | 4.25 µM | 15.6 µM

system: HOP-62 NSCLC; assay: as above

Row | Compound | GI50 | TGI
13 | CN(C)C(=O)c1cc2cnc(Nc3ccc(N4CCNCC4)cn3)nc2n1C1CCCC1 | 29.2 µM | 67.6 µM
14 | COc1cc2nccc(Oc3ccc(NC(=O)C4(C(=O)Nc5ccc(F)cc5)CC4)cc3)c2cc1OC | 5.16 µM | 24.2 µM
15 | O=C(Nc1cccc(C(F)(F)F)c1)Nc1cc(S(=O)(=O)NC2CC2)ccc1-c1ccsc1 | 3.98 µM | 13.4 µM

system: A549 NSCLC; assay: as above

Row | Compound | GI50 | TGI
16 | CN(C)C(=O)c1cc2cnc(Nc3ccc(N4CCNCC4)cn3)nc2n1C1CCCC1 | 23.5 µM | > 84.1 µM
17 | COc1cc2nccc(Oc3ccc(NC(=O)C4(C(=O)Nc5ccc(F)cc5)CC4)cc3)c2cc1OC | 2.46 µM | 6.13 µM
18 | O=C(Nc1cccc(C(F)(F)F)c1)Nc1cc(S(=O)(=O)NC2CC2)ccc1-c1ccsc1 | 4.02 µM | 13.7 µM

system: EKVX NSCLC; assay: as above

Row | Compound | GI50 | TGI
19 | CN(C)C(=O)c1cc2cnc(Nc3ccc(N4CCNCC4)cn3)nc2n1C1CCCC1 | 30.1 µM | > 73 µM
20 | COc1cc2nccc(Oc3ccc(NC(=O)C4(C(=O)Nc5ccc(F)cc5)CC4)cc3)c2cc1OC | 4.64 µM | 15.7 µM
21 | O=C(Nc1cccc(C(F)(F)F)c1)Nc1cc(S(=O)(=O)NC2CC2)ccc1-c1ccsc1 | 4.79 µM | 15.5 µM

system: COLO 205 colon; assay: as above

Row | Compound | GI50 | TGI
22 | CN(C)C(=O)c1cc2cnc(Nc3ccc(N4CCNCC4)cn3)nc2n1C1CCCC1 | 7.64 µM | 30.1 µM
23 | COc1cc2nccc(Oc3ccc(NC(=O)C4(C(=O)Nc5ccc(F)cc5)CC4)cc3)c2cc1OC | 2.14 µM | 4.97 µM
24 | O=C(Nc1cccc(C(F)(F)F)c1)Nc1cc(S(=O)(=O)NC2CC2)ccc1-c1ccsc1 | 5.12 µM | 15.7 µM

system: TK-10 renal; assay: as above

Row | Compound | GI50 | TGI
25 | CN(C)C(=O)c1cc2cnc(Nc3ccc(N4CCNCC4)cn3)nc2n1C1CCCC1 | 27.3 µM | > 100 µM
26 | COc1cc2nccc(Oc3ccc(NC(=O)C4(C(=O)Nc5ccc(F)cc5)CC4)cc3)c2cc1OC | 7.66 µM | 33.7 µM
27 | O=C(Nc1cccc(C(F)(F)F)c1)Nc1cc(S(=O)(=O)NC2CC2)ccc1-c1ccsc1 | 3.96 µM | 14.1 µM

system: MDA-MB-468 breast; assay: as above

Row | Compound | GI50 | TGI
28 | CN(C)C(=O)c1cc2cnc(Nc3ccc(N4CCNCC4)cn3)nc2n1C1CCCC1 | > 59.3 µM | > 100 µM
29 | COc1cc2nccc(Oc3ccc(NC(=O)C4(C(=O)Nc5ccc(F)cc5)CC4)cc3)c2cc1OC | 3.67 µM | 9.4 µM
30 | O=C(Nc1cccc(C(F)(F)F)c1)Nc1cc(S(=O)(=O)NC2CC2)ccc1-c1ccsc1 | 1.96 µM | 4.12 µM

system: HL-60(TB) leukemia; assay: as above

Row | Compound | GI50 | TGI
31 | CN(C)C(=O)c1cc2cnc(Nc3ccc(N4CCNCC4)cn3)nc2n1C1CCCC1 | 0.866 µM | 26.3 µM
32 | COc1cc2nccc(Oc3ccc(NC(=O)C4(C(=O)Nc5ccc(F)cc5)CC4)cc3)c2cc1OC | 2.71 µM | 5.24 µM
33 | O=C(Nc1cccc(C(F)(F)F)c1)Nc1cc(S(=O)(=O)NC2CC2)ccc1-c1ccsc1 | 1.93 µM | 3.52 µM

system: HOP-92 NSCLC; assay: as above

Row | Compound | GI50 | TGI
34 | CN(C)C(=O)c1cc2cnc(Nc3ccc(N4CCNCC4)cn3)nc2n1C1CCCC1 | 11.9 µM | 57.4 µM
35 | COc1cc2nccc(Oc3ccc(NC(=O)C4(C(=O)Nc5ccc(F)cc5)CC4)cc3)c2cc1OC | 1.29 µM | 4.93 µM
36 | O=C(Nc1cccc(C(F)(F)F)c1)Nc1cc(S(=O)(=O)NC2CC2)ccc1-c1ccsc1 | 3.36 µM | 10.5 µM

system: SF-295 CNS; assay: as above

Row | Compound | GI50 | TGI
37 | CN(C)C(=O)c1cc2cnc(Nc3ccc(N4CCNCC4)cn3)nc2n1C1CCCC1 | 23.1 µM | 57.4 µM
38 | COc1cc2nccc(Oc3ccc(NC(=O)C4(C(=O)Nc5ccc(F)cc5)CC4)cc3)c2cc1OC | 1.08 µM | 6.02 µM
39 | O=C(Nc1cccc(C(F)(F)F)c1)Nc1cc(S(=O)(=O)NC2CC2)ccc1-c1ccsc1 | 2.96 µM | 9.42 µM

system: DU-145 prostate; assay: as above

Row | Compound | GI50 | TGI
40 | CN(C)C(=O)c1cc2cnc(Nc3ccc(N4CCNCC4)cn3)nc2n1C1CCCC1 | 16.7 µM | 43.9 µM
41 | COc1cc2nccc(Oc3ccc(NC(=O)C4(C(=O)Nc5ccc(F)cc5)CC4)cc3)c2cc1OC | 4.85 µM | 31.5 µM
42 | O=C(Nc1cccc(C(F)(F)F)c1)Nc1cc(S(=O)(=O)NC2CC2)ccc1-c1ccsc1 | 6.35 µM | 16.4 µM

system: OVCAR-3 ovarian; assay: as above

Row | Compound | GI50 | TGI
43 | CN(C)C(=O)c1cc2cnc(Nc3ccc(N4CCNCC4)cn3)nc2n1C1CCCC1 | 33.1 µM | 61.7 µM
44 | COc1cc2nccc(Oc3ccc(NC(=O)C4(C(=O)Nc5ccc(F)cc5)CC4)cc3)c2cc1OC | 3.36 µM | 10.2 µM
45 | O=C(Nc1cccc(C(F)(F)F)c1)Nc1cc(S(=O)(=O)NC2CC2)ccc1-c1ccsc1 | 2.42 µM | 5.79 µM

system: SF-539 CNS; assay: as above

Row | Compound | GI50 | TGI
46 | CN(C)C(=O)c1cc2cnc(Nc3ccc(N4CCNCC4)cn3)nc2n1C1CCCC1 | 22.2 µM | 68.2 µM
47 | COc1cc2nccc(Oc3ccc(NC(=O)C4(C(=O)Nc5ccc(F)cc5)CC4)cc3)c2cc1OC | 1.32 µM | 4.74 µM
48 | O=C(Nc1cccc(C(F)(F)F)c1)Nc1cc(S(=O)(=O)NC2CC2)ccc1-c1ccsc1 | 5.91 µM | 15 µM

system: OVCAR-8 ovarian; assay: as above

Row | Compound | GI50 | TGI
49 | CN(C)C(=O)c1cc2cnc(Nc3ccc(N4CCNCC4)cn3)nc2n1C1CCCC1 | 37.5 µM | 74.9 µM
50 | COc1cc2nccc(Oc3ccc(NC(=O)C4(C(=O)Nc5ccc(F)cc5)CC4)cc3)c2cc1OC | 3.88 µM | 14.6 µM
51 | O=C(Nc1cccc(C(F)(F)F)c1)Nc1cc(S(=O)(=O)NC2CC2)ccc1-c1ccsc1 | 3.73 µM | 13.4 µM

system: HCC-2998 colon; assay: as above

Row | Compound | GI50 | TGI
52 | CN(C)C(=O)c1cc2cnc(Nc3ccc(N4CCNCC4)cn3)nc2n1C1CCCC1 | 29.2 µM | > 100 µM
53 | COc1cc2nccc(Oc3ccc(NC(=O)C4(C(=O)Nc5ccc(F)cc5)CC4)cc3)c2cc1OC | 5.73 µM | 14 µM
54 | O=C(Nc1cccc(C(F)(F)F)c1)Nc1cc(S(=O)(=O)NC2CC2)ccc1-c1ccsc1 | 5.7 µM | 16.2 µM

system: OVCAR-5 ovarian; assay: as above

Row | Compound | GI50 | TGI
55 | CN(C)C(=O)c1cc2cnc(Nc3ccc(N4CCNCC4)cn3)nc2n1C1CCCC1 | 10.8 µM | 85.3 µM
56 | COc1cc2nccc(Oc3ccc(NC(=O)C4(C(=O)Nc5ccc(F)cc5)CC4)cc3)c2cc1OC | 2.96 µM | 10.7 µM
57 | O=C(Nc1cccc(C(F)(F)F)c1)Nc1cc(S(=O)(=O)NC2CC2)ccc1-c1ccsc1 | 13.8 µM | 26.8 µM

system: HT29 colon; assay: as above

Row | Compound | GI50 | TGI
58 | CN(C)C(=O)c1cc2cnc(Nc3ccc(N4CCNCC4)cn3)nc2n1C1CCCC1 | 24.9 µM | > 51.6 µM
59 | COc1cc2nccc(Oc3ccc(NC(=O)C4(C(=O)Nc5ccc(F)cc5)CC4)cc3)c2cc1OC | 3.17 µM | 12.3 µM
60 | O=C(Nc1cccc(C(F)(F)F)c1)Nc1cc(S(=O)(=O)NC2CC2)ccc1-c1ccsc1 | 4.35 µM | 14.9 µM

system: SF-268 CNS; assay: as above

Row | Compound | GI50 | TGI
61 | CN(C)C(=O)c1cc2cnc(Nc3ccc(N4CCNCC4)cn3)nc2n1C1CCCC1 | 24.8 µM | 46.6 µM
62 | COc1cc2nccc(Oc3ccc(NC(=O)C4(C(=O)Nc5ccc(F)cc5)CC4)cc3)c2cc1OC | 3.68 µM | 12.4 µM
63 | O=C(Nc1cccc(C(F)(F)F)c1)Nc1cc(S(=O)(=O)NC2CC2)ccc1-c1ccsc1 | 4.84 µM | 14.4 µM

system: SK-MEL-5 melanoma; assay: as above

Row | Compound | GI50 | TGI
64 | CN(C)C(=O)c1cc2cnc(Nc3ccc(N4CCNCC4)cn3)nc2n1C1CCCC1 | 28 µM | > 97.1 µM
65 | COc1cc2nccc(Oc3ccc(NC(=O)C4(C(=O)Nc5ccc(F)cc5)CC4)cc3)c2cc1OC | 2.19 µM | 6.58 µM
66 | O=C(Nc1cccc(C(F)(F)F)c1)Nc1cc(S(=O)(=O)NC2CC2)ccc1-c1ccsc1 | 2.32 µM | 5.61 µM

system: MDA-MB-231 breast; assay: as above

Row | Compound | GI50 | TGI
67 | CN(C)C(=O)c1cc2cnc(Nc3ccc(N4CCNCC4)cn3)nc2n1C1CCCC1 | 4.09 µM | 33.7 µM
68 | COc1cc2nccc(Oc3ccc(NC(=O)C4(C(=O)Nc5ccc(F)cc5)CC4)cc3)c2cc1OC | 2.48 µM | 6.76 µM
69 | O=C(Nc1cccc(C(F)(F)F)c1)Nc1cc(S(=O)(=O)NC2CC2)ccc1-c1ccsc1 | 10.6 µM | 23 µM

system: RXF 393 renal; assay: as above

Row | Compound | GI50 | TGI
70 | CN(C)C(=O)c1cc2cnc(Nc3ccc(N4CCNCC4)cn3)nc2n1C1CCCC1 | 17.5 µM | 31 µM

Source: PubChem BioAssay (NCI)
